Where no end group is shown, it is not given here.

The assay relates to LRF (luteinizing hormone release factor) induced luteinizing hormone (LH) release. Briefly: In vitro test for LRF antagonist activity in rat anterior pituitary cell cultures. It is filed as cell-based. An excerpt:
Pentapeptides of this invention were screened for LRF antagonist activity in vitro using rat anterior pituitary cell cultures as described by Vale et. al. [Endocrinology, 91, 562 (1972)]. The inhibition of LRF (luteinizing hormone release factor) induced luteinizing hormone (LH) release into the culture medium is the endpoint in this in vitro bioassay.

Where [1] appears, read: compound Molar Conc. 1 × 10^-7, LRF 3.5 × 10^-10, rat anterior pituitary cell cultures.
The mark [2] stands for this setting: compound Molar Conc. 3 × 10^-7, LRF 3.5 × 10^-10, rat anterior pituitary cell cultures.
Where [3] appears, read: compound Molar Conc. 5 × 10^-8, LRF 3.5 × 10^-10, rat anterior pituitary cell cultures.
The mark [4] stands for this setting: compound Molar Conc. 6 × 10^-7, LRF 3.5 × 10^-10, rat anterior pituitary cell cultures.
Where [5] appears, read: compound Molar Conc. 1 × 10^-6, LRF 2.5 × 10^-10, rat anterior pituitary cell cultures.

Take “LRF: luteinizing hormone releasing factor, formed in the hypothalamus; stimulates secretion of luteinizing hormone; used as the stimulus in the bioassay (QHWSYGLRPG; ends and bridges not checked; UniProt P01148 24-33, looked up) [reference compound]”: the “LH Value” is, setting by setting: (LRF alone, Molar Conc. 2.5 × 10^-10 (control of second experiment; saline control 7.70)) 36.96 ng/mL; (LRF alone, Molar Conc. 3.5 × 10^-10 (control of first experiment; saline control 6.46)) 40.46 ng/mL.
With “N^α -t-Butoxycarbonyl-N^im -benzyl-L-histidyl-O-methyl-L-tyrosyl-O-benzyl-L-seryl-L-tryptophyl-D-alanine N-ethylamide”, the “% LH Release Inhibition” value is, setting by setting: under setting [1], 69%; under setting [2], 90%; under setting [3], 56%; under setting [4], 98%. Also, the “LH Value” reads like this: under setting [1], 17.2 ng/mL; under setting [2], 10.16 ng/mL; under setting [3], 21.61 ng/mL; under setting [4], 7.72 ng/mL.
With “N^α -t-Butoxycarbonyl-N^im -benzyl-L-histidyl-O-methyl-L-tyrosyl-O-benzyl-L-seryl-L-tryptophyl-D-alanine methyl ester”, under setting [5], the “% LH Release Inhibition” value was 69% and the “LH Value” turned out to be 16.89 ng/mL.

The values above are taken from patent US4062835A, “Pentapeptides and methods for their production” (Parke, Davis & Company, priority 1976, dated 1977).
